Some results are limits rather than exact numbers.

The target of one assay is TNFα (Homo sapiens, UniProt P01375). Nature of the assay: Immunoassay binding test, TNFa. The note with it: compounds 100 to 0.78 μM; TNFα 10 ng/ml, receptor 100 ng/ml; read-out: BINDING TNF IC50. A digest of the protocol:
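ELISA-type binding test: receptor-coated plates blocked with 2% BSA, then cytokine (six-point dilution series) preincubated 2 h at 37 °C and bound overnight at 4 °C. Detection used biotinylated anti-cytokine antibody and avidin-HRP, read as OD at 450 nm. For IL-6, IL-6Ra was present at 200 ng/ml final.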

The target of the next assay is TNFa/TNFRI interaction (Homo sapiens, UniProt P01375). Nature of the assay: TNFa/TNFRI interaction displacement test.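 For Displacement EC50 TNFa in presence of compound: Difference: SPD304 reference at 20 µM final.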 In kind it is binding. The note with it: for Displacement EC50 TNFa in presence of compound: Difference: Compound EC50 minus SPD304 EC50; for Displacement (%): compounds at 50 μM, human TNFRI 100 ng/ml. The procedure, abridged: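 Plates coated overnight at 4° C with human TNFRI (100 ng/ml) and blocked with 2% BSA, then test mixtures were incubated overnight at 4° C. Bound cytokine detected with biotinylated anti-cytokine antibody (2 h, 37° C) and avidin-HRP, read as OD at 450 nm.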
Chain of TNFa/TNFRI interaction (P01375 77-233 limits assumed): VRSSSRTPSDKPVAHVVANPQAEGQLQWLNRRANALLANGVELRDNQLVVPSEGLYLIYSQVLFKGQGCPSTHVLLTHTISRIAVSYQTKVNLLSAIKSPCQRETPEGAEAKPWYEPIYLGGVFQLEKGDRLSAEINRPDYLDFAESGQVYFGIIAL

A further assay has as its target T1, IL-4 (Homo sapiens, UniProt P05112).
T1 sequence (P05112 25-153): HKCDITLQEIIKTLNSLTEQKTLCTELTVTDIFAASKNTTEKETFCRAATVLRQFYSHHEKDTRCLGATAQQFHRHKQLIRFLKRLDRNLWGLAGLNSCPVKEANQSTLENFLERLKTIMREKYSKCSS
Nature of the assay: Immunoassay binding test, IL-4. The note with it: for IC50: IL-4 400 ng/ml, receptor 100 ng/ml, read-out: BINDING IL4 IC50. The procedure, abridged: (§1)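 Detection used OD at 450 nm after biotinylated anti-cytokine antibody and avidin-HRP were applied to receptor-coated wells. Those wells had received, overnight at 4 °C, cytokine preincubated 2 h at 37 °C with compound at final 100 to 0.78 μM. IL-6 mixtures further contained IL-6Ra at 200 ng/ml final.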

The target in the next assay is IL-13 (Homo sapiens, UniProt P35225). The assay can be described thus: Immunoassay binding test, IL-13. The settings on record: for IC50: IL-13 400 ng/ml, receptor 100 ng/ml, read-out: BINDING IL13 IC50. A digest of the protocol:
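Receptor-coated plates; compounds (100 to 0.78 μM final) preincubated 2 h at 37° C with fixed cytokine, then bound to receptor overnight at 4° C. Bound cytokine detected with biotinylated anti-cytokine antibody and avidin-HRP, OD 450 nm.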

The next assay addresses IL-6 (Homo sapiens, UniProt P05231). The assay can be described thus: Immunoassay binding test, IL-6 (gp130 receptor, IL-6Ra present). The note with it: IL-6Ra 200 ng/ml. The procedure, abridged:
as §1

Chain of IL-13 (P35225 25-146, species assumed): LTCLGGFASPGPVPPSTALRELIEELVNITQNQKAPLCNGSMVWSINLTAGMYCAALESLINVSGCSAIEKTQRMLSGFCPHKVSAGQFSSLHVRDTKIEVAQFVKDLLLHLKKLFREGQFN
Chain of IL-6 (P05231 30-212, species assumed): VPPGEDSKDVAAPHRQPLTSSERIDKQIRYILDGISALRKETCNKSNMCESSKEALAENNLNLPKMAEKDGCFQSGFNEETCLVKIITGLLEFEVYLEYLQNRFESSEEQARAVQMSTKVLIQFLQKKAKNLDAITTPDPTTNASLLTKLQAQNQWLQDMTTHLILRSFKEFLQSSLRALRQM
Chain of TNFα (P01375 77-233 limits assumed, species assumed): as the sequence (P01375 77-233 limits assumed) above

The term IC50 denotes the midpoint of a concentration-inhibition curve. As for `O=S(=O)(c1ccccc1)n1cc(CN(Cc2ccncc2)CC2CCCN(C3CCCCC3)C2)c2ccccc21` (centres unmarked) [Compound 5], the IC50 on TNFα was 11.1 µM. Also, on TNFa/TNFRI interaction, the “Displacement EC50 TNFa in presence of compound: Difference” value (shortened to “Displacement EC50 TNFa … Difference”) was determined as 8.3 ng/mL and the “Displacement (%)” value amounted to 194%. For the same molecule, at IL-4, the “BINDING IL4 % Neutra at 100 μM” value worked out at 96.9% and the IC50 came to 7.8 µM. Moreover, at IL-13, the “BINDING IL13 % Neutra at 100 μM” value worked out at 84.9% and the IC50 was above 50 µM. At IL-6, the “BINDING IL6 % Neutra at 100 μM” value is 2.1%.
Consider `CCCN(CCOCCN(Cc1cccnc1F)Cc1cn(S(=O)(=O)c2ccccc2)c2ccccc12)C1CCCC1` [Compound 108, N-(2-(2-(((2-fluoropyridin-3-yl)methyl)((1-(phenylsulfonyl)-1H-indol-3-yl)methyl)amino)ethoxy)ethyl)-N-propylcyclopentanamine], for which the IC50 on TNFα worked out at 9.6 µM; on IL-4, 9.1 µM; on IL-13, 40.4 µM. Besides, the “Displacement (%)” value at TNFa/TNFRI interaction worked out at 165%. In addition, on IL-4, the “BINDING IL4 % Neutra at 100 μM” value is 76.7%. In addition, the “BINDING IL13 % Neutra at 100 μM” value on IL-13 is 58.8%. Also, the “BINDING IL6 % Neutra at 100 μM” value at IL-6 worked out at 0%.
For `O=S(=O)(c1ccccc1)n1cc(CN(CCCCCNC2CCCCC2)Cc2cccc(F)n2)c2ccccc21` [Compound 48, N1-cyclohexyl-N5-((6-fluoropyridin-2-yl)methyl)-N5-((1-(phenylsulfonyl)-1H-indol-3-yl)methyl)pentane-1,5-diamine], the IC50 at TNFα amounted to 13.7 µM. In addition, the “Displacement (%)” value on TNFa/TNFRI interaction came out at 91%. At IL-4, the “BINDING IL4 % Neutra at 100 μM” value stood at 91.2% and the half-maximal inhibitory concentration (IC50) came out at 7 µM. Also, on IL-13, the “BINDING IL13 % Neutra at 100 μM” value is listed as 89.9% and the IC50 is 17.8 µM. Further, at IL-6, the “BINDING IL6 % Neutra at 100 μM” value worked out at 1%.
In the case of `FC(F)(F)c1cccc(-n2cc(CN(Cc3cccnc3)CC3CCCN(C4CCCCC4)C3)c3ccccc32)c1` (centres unmarked) [Compound 4], the IC50 on TNFα came out at 21.3 µM. At TNFa/TNFRI interaction, the “Displacement EC50 TNFa … Difference” value is recorded as “Difference = 9 ng/ml” and the “Displacement (%)” value is reported as 221%. Besides, on IL-4, the “BINDING IL4 % Neutra at 100 μM” value amounted to 98.3% and the IC50 worked out at 4 µM. For the same molecule, on IL-13, the “BINDING IL13 % Neutra at 100 μM” value was determined as 92.2% and the IC50 was found to be 9.9 µM. For the same molecule, at IL-6, the “BINDING IL6 % Neutra at 100 μM” value was 5.2%.
For `CCCCN(CCOCCN(Cc1cccnc1F)Cc1cn(S(=O)(=O)c2ccccc2)c2ccccc12)C1CCCCC1` [Compound 102], the figures for the IC50 on TNFα, on IL-4 and at IL-13 were 7.2 µM, 6.3 µM and above 25 µM, respectively. The “Displacement (%)” value on TNFa/TNFRI interaction is on record as 138%. In addition, the “BINDING IL4 % Neutra at 100 μM” value on IL-4 amounted to 83.2%. Besides, the “BINDING IL13 % Neutra at 100 μM” value at IL-13 is given as 39.2%. In addition, at IL-6, the “BINDING IL6 % Neutra at 100 μM” value is recorded as 0%.
Consider `O=S(=O)(c1ccccc1)n1cc(CN(CCOCCNC2CCCC2)Cc2cccnc2F)c2ccccc21` [Compound 103, N-(2-(2-(((2-fluoropyridin-3-yl)methyl)((1-(phenylsulfonyl)-1H-indol-3-yl)methyl)amino)ethoxy)ethyl)cyclopentanamine], for which the IC50 on TNFα was determined as 10.2 µM. Further, on TNFa/TNFRI interaction, the “Displacement (%)” value came to 159%. At IL-4, the “BINDING IL4 % Neutra at 100 μM” value is recorded as 91.1% and the IC50 stood at 10.5 µM. Also, at IL-13, the “BINDING IL13 % Neutra at 100 μM” value is 89.1% and the IC50 was found to be 38.9 µM. For the same molecule, the “BINDING IL6 % Neutra at 100 μM” value on IL-6 came to 0%.
On to `CN(CCOCCN(Cc1cccnc1F)Cc1cn(S(=O)(=O)c2ccccc2)c2ccccc12)C1CCCC1` [Compound 105, N-(2-(2-(((2-fluoropyridin-3-yl)methyl)((1-(phenylsulfonyl)-1H-indol-3-yl)methyl)amino)ethoxy)ethyl)-N-methylcyclopentanamine], for which the IC50 on TNFα came out at 7.5 µM. For the same molecule, the “Displacement (%)” value at TNFa/TNFRI interaction is given as 162%. At IL-4, the “BINDING IL4 % Neutra at 100 μM” value worked out at 91.2% and the IC50 is 11.5 µM. For the same molecule, at IL-13, the “BINDING IL13 % Neutra at 100 μM” value was 74.3% and the IC50 was above 50 µM. The “BINDING IL6 % Neutra at 100 μM” value at IL-6 turned out to be 0%.
Take `CC(=O)NCCCCN(Cc1cccnc1F)Cc1cn(S(=O)(=O)c2ccccc2)c2ccccc12` [Compound 85]: the IC50 at TNFα came to 44.3 µM. Further, the “Displacement (%)” value on TNFa/TNFRI interaction turned out to be 45%. Moreover, at IL-4, the “BINDING IL4 % Neutra at 100 μM” value came out at 36.6% and the IC50 was above 100 µM. At IL-13, the “BINDING IL13 % Neutra at 100 μM” value amounted to 0%. The “BINDING IL6 % Neutra at 100 μM” value on IL-6 was found to be 3%.
Regarding `CCCN(CCCCN(Cc1cccnc1F)Cc1cn(S(=O)(=O)c2ccccc2)c2ccccc12)C1CCCC1` [Compound 98], the IC50 at TNFα came out at 9.9 µM. Further, the “Displacement (%)” value at TNFa/TNFRI interaction is 127%. Moreover, at IL-4, the “BINDING IL4 % Neutra at 100 μM” value is listed as 93.4% and the IC50 turned out to be 6.2 µM. At IL-13, the “BINDING IL13 % Neutra at 100 μM” value amounted to 90.2% and the IC50 was above 50 µM. In addition, the “BINDING IL6 % Neutra at 100 μM” value on IL-6 is 0%.
For the molecule `O=S(=O)(c1ccccc1)n1cc(CN(CCCCNC2CCCCC2)Cc2ccncc2)c2ccccc21` [Compound 16], the IC50 at TNFα worked out at 5.4 µM. Moreover, on TNFa/TNFRI interaction, the “Displacement EC50 TNFa … Difference” value was determined as 4.7 ng/mL and the “Displacement (%)” value came out at 165%. Further, at IL-4, the “BINDING IL4 % Neutra at 100 μM” value stood at 99.5% and the IC50 was determined as 4.8 µM. Also, on IL-13, the “BINDING IL13 % Neutra at 100 μM” value was 88.2% and the IC50 was above 50 µM. Also, at IL-6, the “BINDING IL6 % Neutra at 100 μM” value worked out at 15.7%.
For the molecule `FC(F)(F)c1cccc(-n2cc(CN(Cc3ccccn3)CC3CCCN(C4CCCCC4)C3)c3ccccc32)c1` (centres unmarked) [Compound 2], on TNFα, the IC50 came out at 19.9 µM. At TNFa/TNFRI interaction, the “Displacement EC50 TNFa … Difference” value is 14.9 ng/mL and the “Displacement (%)” value stood at 183%. Besides, at IL-4, the “BINDING IL4 % Neutra at 100 μM” value is recorded as 97.8% and the IC50 turned out to be 3.3 µM. Besides, on IL-13, the “BINDING IL13 % Neutra at 100 μM” value is recorded as 97.1% and the IC50 stood at 1.4 µM. Also, at IL-6, the “BINDING IL6 % Neutra at 100 μM” value worked out at 2%.
`CN(CCCCCN(Cc1ccncc1)Cc1cn(S(=O)(=O)c2ccccc2)c2ccccc12)C1CCCCC1` [Compound 35]: the IC50 at TNFα stood at 4.6 µM. Further, on TNFa/TNFRI interaction, the “Displacement (%)” value is given as 181%. At IL-4, the “BINDING IL4 % Neutra at 100 μM” value is reported as 96.1% and the IC50 turned out to be 5.6 µM. Further, at IL-13, the “BINDING IL13 % Neutra at 100 μM” value is on record as 97.1% and the IC50 was above 50 µM. For the same molecule, the “BINDING IL6 % Neutra at 100 μM” value at IL-6 is −21.5%.
On to `CN(CCN(Cc1ccncc1)Cc1cn(S(=O)(=O)c2ccccc2)c2ccccc12)C1CCCCC1` [Compound 28], for which the IC50 on TNFα was 14.5 µM; on IL-4, 8.1 µM; on IL-13, above 50 µM. The “Displacement (%)” value on TNFa/TNFRI interaction is recorded as 125%. The “BINDING IL4 % Neutra at 100 μM” value at IL-4 came to 96.6%. In addition, at IL-13, the “BINDING IL13 % Neutra at 100 μM” value stood at 38.3%. Besides, on IL-6, the “BINDING IL6 % Neutra at 100 μM” value is recorded as 12.4%.
As to `CN(CCN(Cc1cccnc1)Cc1cn(S(=O)(=O)c2ccccc2)c2ccccc12)C1CCCCC1` [Compound 27], the values for the IC50 at TNFα, on IL-4 and at IL-13 were 13.8 µM, 7.8 µM and above 50 µM, respectively. In addition, the “Displacement (%)” value on TNFa/TNFRI interaction stood at 121%. Further, the “BINDING IL4 % Neutra at 100 μM” value on IL-4 was 96.3%. Also, the “BINDING IL13 % Neutra at 100 μM” value at IL-13 is on record as 53.9%. Further, at IL-6, the “BINDING IL6 % Neutra at 100 μM” value is recorded as −12%.

These data come from patent publication US20230416239A1, “COMPOUNDS AND METHODS FOR TREATING A CYTOKINE-MEDIATED DISEASE” (CONSERVATOIRE NATIONAL DES ARTS ET MÉTIERS, priority 2020, published 2023).
